What all share (assay type): biochemical
One experiment concerns the target T1, caspase 6 (Homo sapiens, UniProt P55212).
T1 construct: purchased Biomol International, UK
T1 sequence (P55212 24-179 limits assumed): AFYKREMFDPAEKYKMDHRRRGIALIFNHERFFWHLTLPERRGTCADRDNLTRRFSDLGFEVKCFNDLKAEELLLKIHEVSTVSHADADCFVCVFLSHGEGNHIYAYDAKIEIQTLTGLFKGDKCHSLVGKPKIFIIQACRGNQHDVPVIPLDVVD
T1 sequence (P55212 194-293 limits assumed): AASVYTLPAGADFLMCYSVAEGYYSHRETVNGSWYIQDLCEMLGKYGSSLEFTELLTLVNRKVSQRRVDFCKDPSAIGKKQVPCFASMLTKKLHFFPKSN
Put plainly: Fluorimetric in vitro caspase inhibition assay (7-AMC), caspase 6. To be noted: recombinant human caspase 6, 10 μM Ac-VEID-AMC; read-out: Caspase EC50 (nM), 1/6/8: caspase 6. How it is done:
(§1) Recombinant human caspases-1, -3, -6, -7, and -8 and their peptide-specific substrates were purchased from Biomol International, UK Inhibition of the recombinant caspases by non-radioactive isatins was assessed using a fluorometric assay that measures the accumulation of a fluorogenic product, 7-amino-4-methylcoumarin (7-AMC). All assays were performed in 96-well plates at a volume of 200 μl per well. The assays were performed at 37° C. in an appropriate reaction buffer as described below for each caspase. For caspase 1, the buffer comprised of 0.1% CHAPS, 100 mM NaCl, 5 mM 2-mercaptoethanol, 100 mM HEPES (pH 7.4), 2 mM EDTA, 10% sucrose, and 10 μM of the peptide substrate Ac-YVAD-AMC. For caspase 3: 20 mM HEPES (pH 7.4), 10% sucrose, 100 mM NaCl, 0.1% CHAPS, 2 m, mM EDTA, and 10 μM Ac-DEVD-AMC. For caspase 6: 20 mM HEPES (pH 7.4), 10% sucrose, 100 mM NaCl, 0.1% CHAPS, 2 mM EDTA, and 10 μM Ac-VEID-AMC. For caspase 7: 20 mM HEPES (pH 7.4), 10% sucrose, 5 mM 2-mercaptoethanol, 100 mM NaCl, 0.1% CHAPS, 2 mM EDTA, 10 μM Ac-DEVD-AMC. For caspase 8: 20 mM HEPES (pH 7.4), 10% sucrose, 100 mM NaCl, 0.1% CHAPS, 2 mM EDTA, and 10 μM Ac-IETD-AMC. The Buffers contained non-radioactive isatins in DMSO at a final concentration of 500, 50, 5 μM; 500, 50, 5 nM; 500, 50, 5 pM; the final concentration of DMSO in all wells was 5% of the total volume. Recombinant caspases were used at 0.5 units per assay (˜500 pmol substrate converted per h). All reagents except the peptide substrate were pre-incubated for 10 min. The peptide substrate (final concentration 10 μM) was then added and the plate was incubated for a further 30 min; 30 min was selected after initial linearity study where reaction was assessed after 10, 30, 60 or 90 min. The 30 min time point was selected. Respective control wells contained all reaction components without enzyme. The amount of 7-AMC produced was measured on a fluorescence microplate reader (Victor2; Perkin-Elmer Life sciences) at excitation and emission wavelengths of 355 nm and 460 nm, respectively. The concentration of isatin that inhibits the caspase activity by 50% (EC50) was estimated by non-linear regression analysis using GraphPad Prism (Version 4.0 for Windows, GraphPad Software, San Diego Calif. USA). All the isatins were analyzed in duplicate; the assays were repeated once. Known compounds 13-16 were included as reference compounds.
(§2) The data are the average for two runs, each of which was duplicated, at nine concentrations ranging from 5 pM to 500 μM; the drug concentration required to inhibit each enzyme by 50% (EC50) was obtained from nonlinear regression analysis of the inhibition profiles.

Another experiment concerns the target T2, caspase 7 (Homo sapiens, UniProt P55210).
T2 construct: purchased Biomol International, UK
T2 sequence (P55210 24-198 limits assumed): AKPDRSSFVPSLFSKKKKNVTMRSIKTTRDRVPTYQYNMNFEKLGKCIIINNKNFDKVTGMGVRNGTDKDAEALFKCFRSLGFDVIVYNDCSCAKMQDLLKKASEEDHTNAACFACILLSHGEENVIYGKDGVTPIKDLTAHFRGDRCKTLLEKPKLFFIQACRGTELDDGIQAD
T2 sequence (P55210 207-303 limits assumed): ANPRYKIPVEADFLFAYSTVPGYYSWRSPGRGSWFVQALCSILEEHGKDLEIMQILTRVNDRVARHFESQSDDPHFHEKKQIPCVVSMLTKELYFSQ
Put plainly: Fluorimetric in vitro caspase inhibition assay (7-AMC), caspase 7. To be noted: recombinant human caspase 7, 10 μM Ac-DEVD-AMC. On the procedure: as §1, §2

For a further experiment, the target named is T3, caspase 8 (Homo sapiens, UniProt Q14790).
T3 construct: purchased Biomol International, UK
T3 sequence (Q14790 217-374 limits assumed): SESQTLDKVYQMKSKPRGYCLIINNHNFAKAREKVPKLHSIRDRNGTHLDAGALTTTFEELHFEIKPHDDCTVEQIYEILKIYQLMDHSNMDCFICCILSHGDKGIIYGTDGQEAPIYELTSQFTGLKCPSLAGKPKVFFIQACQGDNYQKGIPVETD
T3 sequence (Q14790 385-479 limits assumed): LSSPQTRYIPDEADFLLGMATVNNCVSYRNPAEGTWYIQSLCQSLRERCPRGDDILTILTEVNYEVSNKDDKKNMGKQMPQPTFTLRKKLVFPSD
Put plainly: Fluorimetric in vitro caspase inhibition assay (7-AMC), caspase 8. The settings on record: recombinant human caspase 8, 10 μM Ac-IETD-AMC; read-out: Caspase EC50 (nM), 1/6/8: caspase 8. How it is done:
as §1, §2

Another experiment concerns the target T4, caspase 1 (Homo sapiens, UniProt P29466).
T4 construct: purchased Biomol International, UK
T4 sequence (P29466 120-297 limits assumed): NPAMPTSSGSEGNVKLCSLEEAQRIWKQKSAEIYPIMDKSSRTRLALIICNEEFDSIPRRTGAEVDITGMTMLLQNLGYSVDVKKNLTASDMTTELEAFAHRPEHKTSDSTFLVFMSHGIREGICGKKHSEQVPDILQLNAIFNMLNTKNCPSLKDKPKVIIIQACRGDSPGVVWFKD
T4 sequence (P29466 317-404 limits assumed): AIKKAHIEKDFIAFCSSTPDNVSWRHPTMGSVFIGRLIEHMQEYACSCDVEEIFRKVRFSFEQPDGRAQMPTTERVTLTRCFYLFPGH
The experiment can be described thus: Fluorimetric in vitro caspase inhibition assay (7-AMC), caspase 1. To be noted: recombinant human caspase 1, 10 μM Ac-YVAD-AMC; read-out: Caspase EC50 (nM), 1/6/8: caspase 1. On the procedure:
as §1, §2

`O=C1C(=O)N(Cc2ccc(F)cc2)c2ccc(S(=O)(=O)N3CCC[C@H]3COc3cccc(F)c3)cc21` [Compound 1, (S)-1-(4-Fluorobenzyl)-5-(2-(3-fluorophenoxymethyl)-pyrrolidine-1-sulfonyl)isatin]: the EC50 on caspase 6 is greater than 5000 nM; at caspase 7, 13.5 nM; at caspase 8 it was greater than 5000 nM; on caspase 1, greater than 5000 nM.

Consider `O=C1C(=O)N(Cc2ccc(F)cc2)c2ccc(S(=O)(=O)N3CCC[C@H]3COc3ccc(F)cc3F)cc21` [Compound 2, (S)-1-(4-Fluorobenzyl)-5-(2-(2,4-difluorophenoxymethyl)-pyrrolidine-1-sulfonyl)isatin], for which the EC50 on caspase 6 was greater than 5000 nM; at caspase 7, 13 nM; on caspase 8, greater than 5000 nM; at caspase 1, greater than 5000 nM.

With `O=C1C(=O)N(Cc2ccc(F)cc2)c2ccc(S(=O)(=O)N3CCC[C@H]3COC3CCOCC3)cc21` [Compound 4, (S)-1-(4-Fluorobenzyl)-5-(2-(tetrahydro-2H-pyran-4-yloxymethyl)-pyrrolidine-1-sulfonyl)isatin], the EC50 on caspase 6 is greater than 5000 nM; on caspase 7 it was 14.4 nM; at caspase 8, greater than 5000 nM; at caspase 1, greater than 5000 nM.

For `O=C1C(=O)N(Cc2ccc(F)cc2)c2ccc(S(=O)(=O)N3CCC[C@H]3COc3ccncn3)cc21` [Compound 5, (S)-1-(4-Fluorobenzyl)-5-(2-(pyrimidin-4-yloxymethyl)-pyrrolidine-1-sulfonyl)isatin], the EC50 at caspase 6 was greater than 5000 nM; on caspase 7, 2.3 nM; on caspase 8, greater than 5000 nM; at caspase 1, greater than 5000 nM.

In the case of `O=C1C(=O)N(Cc2cn(CCF)nn2)c2ccc(S(=O)(=O)N3CCC[C@H]3COc3ccccc3)cc21` [Compound 10, (S)-1-((1-(2-Fluoroethyl)-1H-[1,2,3]-triazol-4-yl)methyl)-5-(2-phenoxymethyl-pyrrolidine-1-sulfonyl)isatin], the EC50 on caspase 6 was greater than 5000 nM; at caspase 7 it was 28.2 nM; at caspase 8, greater than 5000 nM; at caspase 1, greater than 5000 nM.

On to `O=C1C(=O)N(Cc2cn(CCF)nn2)c2ccc(S(=O)(=O)N3CCC[C@H]3COc3ccc(F)cc3F)cc21` [Compound 11, (S)-1-((1-(2-Fluoroethyl)-1H-[1,2,3]-triazol-4-yl)methyl)-5-(2(2,4-difluorophenoxymethyl)-pyrrolidine-1-sulfonyl)isatin], for which the EC50 on caspase 6 was greater than 5000 nM; at caspase 7 it was 2.2 nM; at caspase 8, greater than 5000 nM; on caspase 1, greater than 5000 nM.

Turning to `O=C1C(=O)N(Cc2ccccc2)c2ccc(S(=O)(=O)N3CCC[C@H]3COc3ccccc3)cc21` [Compound 13, (S)-1-benzyl-5-(2-phenoxymethyl-pyrrolidine-1-sulfonyl)isatin, reference compound], the EC50 at caspase 6 is greater than 5000 nM; on caspase 7, 29.4 nM; at caspase 8, greater than 5000 nM; at caspase 1, greater than 5000 nM.

In the case of `O=C1C(=O)N(Cc2ccc(I)cc2)c2ccc(S(=O)(=O)N3CCC[C@H]3COc3ccccc3)cc21` [Compound 14, (S)-1-(4-iodobenzyl)-5-(2-phenoxymethyl-pyrrolidine-1-sulfonyl)isatin, reference compound], the EC50 is greater than 5000 nM at caspase 6, 25.3 nM on caspase 7, greater than 5000 nM at caspase 8 and greater than 5000 nM at caspase 1.

For `O=C1C(=O)N(Cc2ccc(F)cc2)c2ccc(S(=O)(=O)N3CCC[C@H]3COc3ccccc3)cc21` [Compound 15, (S)-1-(4-fluorobenzyl)-5-(2-phenoxymethyl-pyrrolidine-1-sulfonyl)isatin, reference compound], the EC50 on caspase 6 is greater than 5000 nM; at caspase 7 it was 19.8 nM; at caspase 8, greater than 5000 nM; at caspase 1, greater than 5000 nM.

For `O=C1C(=O)N(Cc2ccc(F)cc2)c2ccc(S(=O)(=O)N3CCCC3)cc21` [Compound 16, 1-(4-Fluorobenzyl)-5-(pyrrolidine-1-sulfonyl)isatin, reference compound], the EC50 was greater than 5000 nM at caspase 6, 78.6 nM on caspase 7, greater than 5000 nM on caspase 8 and greater than 5000 nM at caspase 1.

Turning to `O=C1C(=O)N(Cc2ccc(F)cc2)c2ccc(S(=O)(=O)N3CCC[C@H]3COc3ccc(F)cc3)cc21` [Compound 22, (S)-1-(4-Fluorobenzyl)-5-(2-(4-fluorophenoxymethyl)-pyrrolidine-1-sulfonyl)isatin], the EC50 was greater than 5000 nM at caspase 6, 8 nM on caspase 7, greater than 5000 nM on caspase 8 and greater than 5000 nM at caspase 1.

`C#CCN1C(=O)C(=O)c2cc(S(=O)(=O)N3CCC[C@H]3COc3ccc(F)cc3F)ccc21` [Compound 25, (S)-1-(2-Propynyl)-5-(2-(2,4-difluorophenoxymethyl)-pyrrolidine-1-sulfonyl)isatin]: the EC50 is greater than 5000 nM at caspase 6, 60.4 nM on caspase 7, greater than 5000 nM at caspase 8 and greater than 5000 nM at caspase 1.

The values are drawn from patent publication US8961930B2, “Isatin derivatives for use as in vivo imaging agents” (Imperial Innovations Limited, priority 2008, dated 2015).
